Test results published in US10221177B2 (HYDRA BIOSCIENCES, INC., priority 2014, dated 2019).
Values joined by “and” are separate entries in the source; they are usually repeats but may differ in a detail not shown here. Equal values may be shown once.

How the values were obtained:
[1] = system: formalin-induced pain behaviors in the rat; test: Formalin-induced pain test (formalin model), duration of pain behaviors; format: in vivo
Procedure: Exemplary compounds of the invention were tested in the formalin-induced pain test reported by Dubuisson et al., Pain 1977 December; 4(2):161-74 (incorporated herein by reference in its entirety). Briefly, dilute formalin (50 μL of 3% formalin) was injected into the plantar surface of the hind paw of a rat. […] The individual responsible for counting the pain behaviors in a particular study was blinded to the treatment groups.
The initial phase (Phase I: 0-5 min) is thought to have a significant component that is dependent upon direct activation of afferent fibers by formalin and functional TRPA1 (McNamara et al., 2007).
Investigators studied oral administration of compounds of the invention at the doses presented in Table 3 on pain behaviors in the formalin model in the rat. Compounds were formulated as solutions in water with various solvents and excipients including dimethyl sulfoxide (DMSO), polyethylene glycol (15)-hydroxystearate (Solutol®, Sigma-Aldrich), caprylocaproyl macrogol-8 glyceride (Labrasol®, Sigma-Aldrich), polysorbate-80 (Tween®-80, Sigma-Aldrich), and polyoxyl 35 castor oil (Cremophor® EL, BASF Corp.); or suspensions in methylcellulose as indicated in Table 3. Animals were dosed orally with the vehicle, or compounds of the invention one hour prior to intraplantar formalin. […] A decrease over Vehicle indicates a positive result. P values, when indicated, indicate significance compared Vehicle.

[2] = system: CFA-induced cold hypersensitivity of the hind paw; test: CFA-induced pain test, cold hypersensitivity (cold plate paw withdrawal latency); format: in vivo; settings: cold plate 1° C.; for Average PWL Post-Treatment / PWL Change: 1-2 hour pre-treatment; for Average PWL Post-CFA: baseline before dosing
Procedure: Embodiments of the invention may be efficacious in the treatment of inflammatory pain. Compounds of the invention were tested by the CFA-induced pain test method. Compounds were formulated as solutions in water with various solvents and excipients including dimethyl sulfoxide (DMSO), polyethylene glycol (15)-hydroxystearate (Solutol®, Sigma-Aldrich), caprylocaproyl macrogol-8 glyceride (Labrasol®, Sigma-Aldrich), polysorbate-80 (Tween®-80, Sigma-Aldrich), and polyoxyl 35 castor oil (Cremophor® EL, BASF Corp.); or suspensions in methylcellulose as indicated in Table 3 for oral delivery. Briefly, the hind paw was sensitized to cold temperature (allodynic) by administering 0.1 mL of Complete Freund's Adjuvant (CFA) to the right hind paw. Three days later, the time taken for the animal to lift its CFA-injected paw was recorded compared to its un-injected normal left hind paw. […] To avoid tissue damage the maximum cut-off time was 5 minutes. Animals that were allodynic (average PWL to the first three pain behaviors <150 seconds for the CFA-injected hind paw: ˜≥50% difference between the normal and CFA-injected paw) were included in the study and subsequently randomized across treatment groups. The following day, the animals were dosed orally under blinded conditions. Following the 1-2 hour pre-treatment time, the post-dose PWL readings were again taken. The efficacy of the drug treatment was assessed by comparing the PWL in the drug treatment animals to those animals that receive the vehicle. P values, when indicated, indicate significance compared Vehicle.

human TRPA1 = human TRPA1 (Homo sapiens (Human), UniProt O75762); test: In vitro inhibition of human TRPA1, whole cell patch configuration; format: cell-based; settings: current activation 10 μM AITC, tested concentrations 320 pM to 3.2 μM, read-out: hTRPA1 IC50
Procedure, shortened: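 Compound antagonism measured from voltage ramps (±100 or ±80 mV, 400 ms, every 4 s from −40 mV), analysed at −80 and 80 mV, or at constant −60 mV. HEPES-buffered NaCl bath, pH 7.4, EGTA or 2 mM Ca2+; temperature set by perfusion, within ±2° C; no junction-potential correction.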

[3] = 30 mg/kg PO one hour prior to formalin, solution in 8% DMSO and 92% Labrasol
[4] = 1 mg/kg PO, solution in 4% DMSO, 5% Tween-80, 25% Cremophor EL, and 66% water
[5] = 3 mg/kg PO, solution in 4% DMSO, 5% Tween-80, 25% Cremophor EL, and 66% water
[6] = 10 mg/kg PO, solution in 4% DMSO, 5% Tween-80, 25% Cremophor EL, and 66% water
[7] = 1 mg/kg PO one hour prior to formalin, solution in 4% DMSO, 5% Tween-80, 20% Cremophor EL, 71% water
[8] = 3 mg/kg PO one hour prior to formalin, solution in 4% DMSO, 5% Tween-80, 20% Cremophor EL, 71% water
[9] = 10 mg/kg PO one hour prior to formalin, solution in 4% DMSO, 5% Tween-80, 20% Cremophor EL, 71% water
[10] = 1 mg/kg PO, solution in 4% DMSO, 5% Tween-80, 20% Cremophor EL, and 71% water
[11] = 3 mg/kg PO, solution in 4% DMSO, 5% Tween-80, 20% Cremophor EL, and 71% water
[12] = 10 mg/kg PO, solution in 4% DMSO, 5% Tween-80, 20% Cremophor EL, and 71% water
[13] = group 1 mg/kg PO, solution in 4% DMSO, 5% Tween-80, 20% Cremophor EL, and 71% water
[14] = group 3 mg/kg PO, solution in 4% DMSO, 5% Tween-80, 20% Cremophor EL, and 71% water
[15] = 1 mg/kg PO one hour prior to formalin, suspension in 0.5% methylcellulose
[16] = 3 mg/kg PO one hour prior to formalin, suspension in 0.5% methylcellulose
[17] = 10 mg/kg PO one hour prior to formalin, suspension in 0.5% methylcellulose
[18] = 30 mg/kg PO one hour prior to formalin, suspension in 0.5% methylcellulose
[19] = 0.3 mg/kg PO, solution in 4% DMSO, 5% Tween-80, 20% Cremophor EL, and 71% water
[20] = 0.3 mg/kg PO, suspension in 0.5% methylcellulose
[21] = 1 mg/kg PO, suspension in 0.5% methylcellulose
[22] = 3 mg/kg PO, suspension in 0.5% methylcellulose
[23] = group 0.3 mg/kg PO, solution in 4% DMSO, 5% Tween-80, 20% Cremophor EL, and 71% water

Sequence of human TRPA1 (O75762 whole entry, the tested form may be a part): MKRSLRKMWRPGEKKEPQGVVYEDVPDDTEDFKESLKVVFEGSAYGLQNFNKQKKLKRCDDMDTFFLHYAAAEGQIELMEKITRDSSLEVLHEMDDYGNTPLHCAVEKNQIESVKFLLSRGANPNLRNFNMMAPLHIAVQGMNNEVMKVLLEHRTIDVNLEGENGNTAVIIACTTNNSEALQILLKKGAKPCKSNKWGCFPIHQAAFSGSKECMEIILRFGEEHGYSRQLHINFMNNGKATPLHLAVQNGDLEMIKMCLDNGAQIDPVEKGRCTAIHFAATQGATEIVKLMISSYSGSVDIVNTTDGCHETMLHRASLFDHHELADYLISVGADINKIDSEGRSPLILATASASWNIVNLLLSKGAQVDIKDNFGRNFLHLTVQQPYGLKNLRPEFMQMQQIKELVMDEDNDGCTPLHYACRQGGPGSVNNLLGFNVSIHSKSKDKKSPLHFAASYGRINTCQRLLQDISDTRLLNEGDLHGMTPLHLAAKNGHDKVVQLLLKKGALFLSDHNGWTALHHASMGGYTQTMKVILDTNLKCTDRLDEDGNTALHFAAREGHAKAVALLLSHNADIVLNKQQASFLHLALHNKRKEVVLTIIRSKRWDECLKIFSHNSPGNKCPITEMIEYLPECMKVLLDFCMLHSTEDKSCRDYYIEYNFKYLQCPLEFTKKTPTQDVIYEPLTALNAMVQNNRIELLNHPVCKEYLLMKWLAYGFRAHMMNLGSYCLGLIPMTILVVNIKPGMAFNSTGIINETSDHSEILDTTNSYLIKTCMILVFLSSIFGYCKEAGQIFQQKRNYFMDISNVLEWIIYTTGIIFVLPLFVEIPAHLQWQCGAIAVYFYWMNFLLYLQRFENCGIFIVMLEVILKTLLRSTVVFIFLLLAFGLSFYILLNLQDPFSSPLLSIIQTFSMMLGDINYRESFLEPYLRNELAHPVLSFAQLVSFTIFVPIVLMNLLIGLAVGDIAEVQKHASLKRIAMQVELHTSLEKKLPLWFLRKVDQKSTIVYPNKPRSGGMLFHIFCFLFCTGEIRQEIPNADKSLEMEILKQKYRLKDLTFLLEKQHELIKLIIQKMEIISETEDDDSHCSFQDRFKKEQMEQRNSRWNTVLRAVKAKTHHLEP

IC50 (human TRPA1) [nM] | SMILES | Duration (0-2 Minutes) Average [1, 7] [s] | Duration (0-5 Minutes) Average [1, 7] [s] | Duration (0-2 Minutes) Average [1, 8] [s] | Duration (0-5 Minutes) Average [1, 8] [s] | Duration (0-2 Minutes) Average [1, 9] [s] | Duration (0-5 Minutes) Average [1, 9] [s] | Average PWL Post-Treatment [2, 10] | PWL Change [2, 10] [s] | Average PWL Post-Treatment [2, 11] | PWL Change [2, 11] [s] | Average PWL Post-CFA [2, 13] | Average PWL Post-CFA [2, 14] | Average PWL Post-Treatment [2, 19] | PWL Change [2, 19] [s] | Average PWL Post-CFA [2, 23] | also measured
 | CCC(=O)Cn1c(=O)c2c(ncn2[C@@H](C)C(=O)Nc2csc(-c3cnc(N4CC5CC5C4)nc3)n2)n(C)c1=O (stereo partly drawn) [Compound 14] |  |  |  |  |  |  |  |  |  |  |  |  |  |  |  | Duration (0-2 Minutes) Average [1, 3]: 34.3 s and 39.6 s; Duration (0-5 Minutes) Average [1, 3]: 123.4 s and 160.6 s; Average PWL Post-Treatment [2, 4]: 194.8; PWL Change [2, 4]: 104.2 s; Average PWL Post-Treatment [2, 5]: 180.0; PWL Change [2, 5]: 87.6 s; Average PWL Post-Treatment [2, 6]: 237.4; PWL Change [2, 6]: 146.3 s; Average PWL Post-CFA ([2]; group 1 mg/kg PO, solution in 4% DMSO, 5% Tween-80, 25% Cremophor EL, and 66% water): 90.3; Average PWL Post-CFA ([2]; group 3 mg/kg PO, solution in 4% DMSO, 5% Tween-80, 25% Cremophor EL, and 66% water): 92.3; Average PWL Post-CFA ([2]; group 10 mg/kg PO, solution in 4% DMSO, 5% Tween-80, 25% Cremophor EL, and 66% water): 90.9
 | CCC(=O)Cn1c(=O)c2c(ncn2[C@@H](C)C(=O)Nc2csc(-c3cnc(N4CCC[C@H]4C(F)(F)F)nc3)n2)n(C)c1=O [Compound 18, (S)-2-(3-methyl-2,6-dioxo-1-(2-oxobutyl)-2,3-dihydro-1H-purin-7(6H)-yl)-N-(2-(2-((S)-2-(trifluoromethyl)pyrrolidin-1-yl)pyrimidin-5-yl)thiazol-4-yl)propanamide] | 78.0 | 183.3 | 58.0 | 157.1 | 35.3 | 181.6 | 246.8 | 149.7 | 233.5 | 136.4 | 97.1 | 97.0 |  |  |  | Average PWL Post-Treatment [2, 12]: 256.1; PWL Change [2, 12]: 159.1 s; Average PWL Post-CFA ([2]; group 10 mg/kg PO, solution in 4% DMSO, 5% Tween-80, 20% Cremophor EL, and 71% water): 97.0
19 | Cc1cc(Cn2c(=O)c3c(ncn3[C@@H](C)C(=O)Nc3cncc(-c4cnc(C(F)(F)F)nc4)n3)n(C)c2=O)no1 [Compound 21, (S)-2-(3-methyl-1-((5-methylisoxazol-3-yl)methyl)-2,6-dioxo-2,3-dihydro-1H-purin-7(6H)-yl)-N-(6-(2-(trifluoromethyl)pyrimidin-5-yl)pyrazin-2-yl)propanamide] | 99.6 | 206.9 | 97.5 | 186.9 | 71.8 | 116.5 | 208.5 | 94.2 | 258.9 | 148.8 | 114.3 | 110.1 | 159.2 | 49.6 | 109.6 | Duration (0-2 Minutes) Average [1, 15]: 80.5 s; Duration (0-5 Minutes) Average [1, 15]: 202.5 s; Duration (0-2 Minutes) Average [1, 16]: 86.5 s; Duration (0-5 Minutes) Average [1, 16]: 190.1 s; Duration (0-2 Minutes) Average [1, 17]: 78.0 s and 92.3 s; Duration (0-5 Minutes) Average [1, 17]: 202.8 s and 163.1 s; Duration (0-2 Minutes) Average [1, 18]: 100.5 s; Duration (0-5 Minutes) Average [1, 18]: 165.4 s; Average PWL Post-Treatment [2, 20]: 106.4; PWL Change [2, 20]: 11.9 s; Average PWL Post-Treatment [2, 21]: 155.2; PWL Change [2, 21]: 59.8 s; Average PWL Post-Treatment [2, 22]: 236.7; PWL Change [2, 22]: 142.4 s; Average PWL Post-CFA ([2]; group 0.3 mg/kg PO, suspension in 0.5% methylcellulose): 94.5; Average PWL Post-CFA ([2]; group 1 mg/kg PO, suspension in 0.5% methylcellulose): 95.4; Average PWL Post-CFA ([2]; group 3 mg/kg PO, suspension in 0.5% methylcellulose): 94.3
4 | CC(=O)Cn1c(=O)c2c(ncn2[C@@H](C)C(=O)Nc2cccc(-c3cnc(N4CC5C(C4)C5(F)F)nc3)n2)n(C)c1=O (stereo partly drawn) [Compound 25, (2S)—N-(6-(2-(6,6-difluoro-3-azabicyclo[3.1.0]hexan-3-yl)pyrimidin-5-yl)pyridin-2-yl)-2-(3-methyl-2,6-dioxo-1-(2-oxopropyl)-2,3-dihydro-1H-purin-7(6H)-yl)propanamide] | 87.8 | 190.1 | 22.8 | 98.3 | 29.1 | 146.0 | 224.8 | 119.7 | 259.9 | 154.9 | 105.1 | 105.1 | 170.2 | 65.2 | 105.0 | 
 | COCC(=O)Cn1c(=O)c2c(ncn2[C@@H](C)C(=O)Nc2csc(-c3cnc(N4CC5CC5C4)nc3)n2)n(C)c1=O (stereo partly drawn) [Compound 105, (2S)—N-(2-(2-(3-azabicyclo[3.1.0]hexan-3-yl)pyrimidin-5-yl)thiazol-4-yl)-2-(1-(3-methoxy-2-oxopropyl)-3-methyl-2,6-dioxo-2,3-dihydro-1H-purin-7(6H)-yl)propanamide] | 97.9 | 162.6 | 86.0 | 154.0 | 70.1 | 137.3 | 215.2 | 112.8 | 226.3 | 123.6 | 102.3 | 102.7 | 137.3 | 34.9 | 102.4 | 
